Literature values in patent publication US12465571B2, “Solid dosage form” (University of Lancashire, priority 2016, dated 2025).

Conditions: high solubility and high permeability

Biopharmaceutical Classification System class: class I
SMILES: Cn1c(=O)c2[nH]cnc2n(C)c1=O [theophylline, Theophylline]
